Data published in patent US20060293315A1, “Intermediates of novel heterocyclic compounds having antibacterial activity and process for their preparation” (Dr. Reddy's Laboratories Ltd., priority 2001, published 2006).

| melting point | Compound |
| --- | --- |
| 154 °C | CC(=S)NC[C@H]1CN(c2ccc(N3CCOC3=O)c(C(F)(F)F)c2)C(=O)O1 [Example 102] |
| 108 °C | CC(=S)NC[C@H]1CN(c2cc(F)c(N3CCOC3=O)c(F)c2)C(=O)O1 [Example 103] |
| 168 °C | CCC(=S)NC[C@H]1CN(c2cc(F)c(N3CCOC3=O)c(F)c2)C(=O)O1 [Example 104] |
| 195 °C | CC(=S)NC[C@H]1CN(c2ccc(N3CCOC3=O)cc2)C(=O)O1 [Example 105] |
| 165 °C | CC(=S)NC[C@H]1CN(c2ccc(N3CCN(c4ccccc4)C3=O)c(F)c2)C(=O)O1 [Example 106] |
| 148 to 150 °C | CC(=S)NC[C@H]1CN(c2cc(F)c(N3CNC(=O)C3)c(F)c2)C(=O)O1 [Example 108] |
| 153 °C | COC(=O)NC[C@H]1CN(c2ccc(N3CCOC3=O)c(F)c2)C(=O)O1 [Example 109] |
| 148 °C | COC(=O)NC[C@H]1CN(c2ccc(N3CCOC3=O)c(C(F)(F)F)c2)C(=O)O1 [Example 110] |
| 157 °C | COC(=O)NC[C@H]1CN(c2cc(F)c(N3CCOC3=O)c(F)c2)C(=O)O1 [Example 111] |
| 195 °C | COC(=O)NC[C@H]1CN(c2ccc(N3CCOC3=O)cc2)C(=O)O1 [Example 112] |
| 226 °C | COC(=O)NC[C@H]1CN(c2ccc(N3CC(=O)N(C)C3)c(F)c2)C(=O)O1 [Example 113] |
| 161 °C | CSC(=S)NC[C@H]1CN(c2ccc(N3CCOC3=O)cc2)C(=O)O1 [Example 114] |
| 147 °C | CSC(=S)NC[C@H]1CN(c2cc(F)c(N3CCOC3=O)c(F)c2)C(=O)O1 [Example 115] |
| 137 °C | COC(=S)NC[C@H]1CN(c2ccc(N3CCOC3=O)c(F)c2)C(=O)O1 [Example 119] |
| 208 °C | CCOC(=S)NC[C@H]1CN(c2ccc(N3CCOC3=O)c(F)c2)C(=O)O1 [Example 120] |
| 184 °C | O=C1O[C@@H](CNC(=S)OC(=O)C(F)(F)F)CN1c1ccc(N2CCOC2=O)c(F)c1 [Example 121] |
| 153 °C | O=C1OCCN1c1ccc(N2C[C@H](CNC(=S)OC3CCCCC3)OC2=O)cc1 [Example 122] |
| 197 °C | COC(=S)NC[C@H]1CN(c2ccc(N3CCOC3=O)c(F)c2)C(=O)O1 [Example 123] |
| 197 °C | CCOC(=S)NC[C@H]1CN(c2ccc(N3CCN(C)C3=S)c(F)c2)C(=O)O1 [Example 124] |
| > 200 °C | CCCOC(=S)NC[C@H]1CN(c2ccc(N3CCN(C)C3=S)c(F)c2)C(=O)O1 [Example 125] |
| 179 °C | COC(=S)NC[C@H]1CN(c2ccc(N3CCN(C)C3=S)c(F)c2)C(=O)O1 [Example 126] |
| 183 °C | CC(C)OC(=S)NC[C@H]1CN(c2ccc(N3CCN(C)C3=S)c(F)c2)C(=O)O1 [Example 127] |
| 146 °C | COC(=S)NC[C@H]1CN(c2ccc(N3CCOC3=O)c(C(F)(F)F)c2)C(=O)O1 [Example 128] |
| 157 °C | CCOC(=S)NC[C@H]1CN(c2ccc(N3CCOC3=O)c(C(F)(F)F)c2)C(=O)O1 [Example 129] |
| 182 °C | COC(=S)NC[C@H]1CN(c2cc(F)c(N3CCOC3=O)c(F)c2)C(=O)O1 [Example 130] |

| melting point | Compound |
| --- | --- |
| 153 °C | COC(=S)NC[C@H]1CN(c2ccc(N3CCOC3=O)cc2)C(=O)O1 [Example 131] |
| 168 °C | CCOC(=S)NC[C@H]1CN(c2ccc(N3CCOC3=O)cc2)C(=O)O1 [Example 132] |
| 176 °C | CCCOC(=S)NC[C@H]1CN(c2ccc(N3CCOC3=O)cc2)C(=O)O1 [Example 133] |
| 181 °C | O=C1OCCN1c1ccc(N2C[C@H](CNC(=S)OCC(F)(F)F)OC2=O)cc1 [Example 134] |
| 141 °C | O=C1OCCN1c1ccc(N2C[C@H](CNC(=S)OCCO)OC2=O)cc1 [Example 135] |
| 149 °C | COCCOC(=S)NC[C@H]1CN(c2ccc(N3CCOC3=O)cc2)C(=O)O1 [Example 136] |
| 150 °C | C=CCOC(=S)NC[C@H]1CN(c2ccc(N3CCOC3=O)cc2)C(=O)O1 [Example 137] |
| 140 °C | CC(C)OC(=S)NC[C@H]1CN(c2ccc(N3CCOC3=O)cc2)C(=O)O1 [Example 138] |
| 141 °C | COC(=S)NC[C@H]1CN(c2ccc(-n3c(=O)oc4ccccc43)cc2)C(=O)O1 [Example 139] |
| 147 °C | CCOC(=S)NC[C@H]1CN(c2ccc(-n3c(=O)oc4ccccc43)cc2)C(=O)O1 [Example 140] |
| 218 °C | COC(=S)NC[C@H]1CN(c2ccc(N3CC(=O)N(C)C3)c(F)c2)C(=O)O1 [Example 141] |
| 209 °C | COC(=S)NC[C@H]1CN(c2ccc(N3CCN(C)C3=O)cc2)C(=O)O1 [Example 142] |
| 205 °C | COC(=S)NC[C@H]1CN(c2ccc(N3CC(=O)N(C)C3)cc2)C(=O)O1 [Example 143] |
| 146 °C | COC(=S)NC[C@H]1CN(c2ccc(N3CCN(C)C3=O)c(F)c2)C(=O)O1 [Example 144] |
| 170 °C | COC(=S)NC[C@H]1CN(c2ccc(N3CCN(Cc4ccccc4)C3=O)cc2)C(=O)O1 [Example 145] |
| 160 °C | CCOC(=S)NC[C@H]1CN(c2ccc(N3CCN(Cc4ccccc4)C3=O)cc2)C(=O)O1 [Example 146] |
| 174 °C | COC(=S)NC[C@H]1CN(c2ccc(N3CCN(c4ccccc4)C3=O)c(F)c2)C(=O)O1 [Example 147] |
| 195 °C | CCOC(=S)NC[C@H]1CN(c2ccc(N3CCN(c4ccccc4)C3=O)c(F)c2)C(=O)O1 [Example 148] |
| 208 °C | COC(=S)NC[C@H]1CN(c2ccc(N3CCN(c4ccc(F)cc4)C3=O)c(F)c2)C(=O)O1 [Example 149] |
| 215 °C | CCOC(=S)NC[C@H]1CN(c2ccc(N3CCN(c4ccc(F)cc4)C3=O)c(F)c2)C(=O)O1 [Example 150] |
| 220 °C | CC(C)OC(=S)NC[C@H]1CN(c2ccc(N3CCN(c4ccc(F)cc4)C3=O)c(F)c2)C(=O)O1 [Example 151] |
| 161 °C | CN(C)CCOC(=S)NC[C@H]1CN(c2ccc(N3CCOC3=O)cc2)C(=O)O1 [Example 152] |
| 158 °C | COC(=S)NC[C@H]1CN(c2ccc(N3CC(=O)N(Cc4ccc(OC)cc4)C3)c(F)c2)C(=O)O1 [Example 153] |
| 192 °C | CC(C)OC(=S)NC[C@H]1CN(c2ccc(N3CC(=O)N(Cc4ccccc4)C3)c(F)c2)C(=O)O1 [Example 154] |
| 184 °C | COC(=S)NC[C@H]1CN(c2ccc(N3CC(=O)N(CO)C3)c(F)c2)C(=O)O1 [Example 155] |

| melting point | Compound |
| --- | --- |
| 202 to 208 °C | COC(=S)NC[C@H]1CN(c2ccc(N3CC(=O)N(CO)C3)cc2)C(=O)O1 [Example 157] |
| 205 to 210 °C | COC(=S)NC[C@H]1CN(c2ccc(N3CNC(=O)C3)cc2)C(=O)O1 [Example 158] |
| 122 °C | CCCCN1CN(c2ccc(N3C[C@H](CNC(=S)OC)OC3=O)cc2F)CC1=O [Example 160] |
| 86 °C | C=CCN1CN(c2ccc(N3C[C@H](CNC(=S)OC)OC3=O)cc2F)CC1=O [Example 161] |
| 195 °C | COC(=S)NC[C@H]1CN(c2ccc(N3CC(=S)N(C)C3)c(F)c2)C(=O)O1 [Example 177] |
| 160 °C | COCN1CN(c2ccc(N3C[C@H](CNC(=S)OC)OC3=O)cc2F)CC1=O [Example 178] |
| 176 °C | COC(=S)NC[C@H]1CN(c2ccc(N3CC(=O)N(Cc4ccccc4)C3)c(F)c2)C(=O)O1 [Example 179] |
| 184 °C | CCOC(=S)NC[C@H]1CN(c2ccc(N3CC(=O)N(Cc4ccccc4)C3)c(F)c2)C(=O)O1 [Example 180] |
| 159 °C | O=C1OCCN1c1ccc(N2C[C@H](CNC(=S)N3CCC[C@H]3CO)OC2=O)cc1 [Example 182] |
| 103 °C | CCN(CC)C(=S)NC[C@H]1CN(c2ccc(N3CCOC3=O)cc2)C(=O)O1 [Example 183] |
| 171 °C | C=CCNC(=S)NC[C@H]1CN(c2ccc(N3CCOC3=O)cc2)C(=O)O1 [Example 184] |
| 181 °C | O=C1OCCN1c1ccc(N2C[C@H](CNC(=S)NCc3ccccc3)OC2=O)cc1 [Example 185] |
| 169 °C | COc1ccc(CNC(=S)NC[C@H]2CN(c3ccc(N4CCOC4=O)cc3)C(=O)O2)cc1 [Example 186] |
| 165 °C | O=C1OCCN1c1ccc(N2C[C@H](CNC(=S)NCc3ccccn3)OC2=O)cc1 [Example 187] |
| 175 °C | CNC(=S)NC[C@H]1CN(c2ccc(N3CCOC3=O)cc2)C(=O)O1 [Example 188] |
| 161 °C | O=C1OCCN1c1ccc(N2C[C@H](CNC(=S)NCCO)OC2=O)cc1 [Example 189] |
| 159 °C | O=C1OCCN1c1ccc(N2C[C@H](CNC(=S)N3CCSCC3)OC2=O)cc1 [Example 190] |
| 189 °C | O=C1OCCN1c1ccc(N2C[C@H](CNC(=S)Nc3ccccn3)OC2=O)cc1 [Example 191] |
| 178 °C | NC(=S)NC[C@H]1CN(c2ccc(N3CCOC3=O)c(F)c2)C(=O)O1 [Example 192] |
| 144 °C | CNC(=S)NC[C@H]1CN(c2ccc(N3CCOC3=O)c(F)c2)C(=O)O1 [Example 193] |
| 92 °C | NC(=S)NC[C@H]1CN(c2cc(F)c(N3CCOC3=O)c(F)c2)C(=O)O1 [Example 194] |
| 113 °C | CNC(=S)NC[C@H]1CN(c2cc(F)c(N3CCOC3=O)c(F)c2)C(=O)O1 [Example 195] |
| 154 to 156 °C | COC(=S)N(C)C[C@H]1CN(c2cc(F)c(N3CNC(=O)C3)c(F)c2)C(=O)O1 [Example 198] |
